Legend:
[1] = target: GABA-A receptor (benzodiazepine site, α1/γ2 interface); test: Radioligand binding assay for the GABA-A receptor ([3H]-flunitrazepam displacement, rat brain homogenate); conditions: pKi = -log Ki, n.a. = no affinity
[2] = target: T1, α1β2γ2-GABA-A receptors stably expressed in HEK293 cells (Homo sapiens, UniProt P14867+P18507); test: Electrophysiological studies, automated patch clamp (QPatch16X), positive allosteric modulation of GABA-induced Cl- currents; format: cell-based; conditions: compound 1 μM co-applied with 10 μM GABA; GABA alone = 100%; mean ± SEM
T1 construct: expressed in transfected cells
T1 sequence (P14867 28-456): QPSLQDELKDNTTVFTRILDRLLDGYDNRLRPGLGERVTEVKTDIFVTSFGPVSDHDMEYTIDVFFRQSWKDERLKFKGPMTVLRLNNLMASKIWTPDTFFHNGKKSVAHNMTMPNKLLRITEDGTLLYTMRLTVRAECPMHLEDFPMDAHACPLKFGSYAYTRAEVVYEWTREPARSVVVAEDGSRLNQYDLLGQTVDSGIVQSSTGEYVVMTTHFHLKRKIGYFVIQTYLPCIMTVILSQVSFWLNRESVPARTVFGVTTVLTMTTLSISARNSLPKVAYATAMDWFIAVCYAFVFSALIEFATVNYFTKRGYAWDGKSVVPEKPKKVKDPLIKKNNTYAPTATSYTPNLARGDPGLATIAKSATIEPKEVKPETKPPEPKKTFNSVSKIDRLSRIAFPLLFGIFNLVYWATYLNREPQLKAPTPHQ
T1 sequence (P47870 25-512 partner limits assumed): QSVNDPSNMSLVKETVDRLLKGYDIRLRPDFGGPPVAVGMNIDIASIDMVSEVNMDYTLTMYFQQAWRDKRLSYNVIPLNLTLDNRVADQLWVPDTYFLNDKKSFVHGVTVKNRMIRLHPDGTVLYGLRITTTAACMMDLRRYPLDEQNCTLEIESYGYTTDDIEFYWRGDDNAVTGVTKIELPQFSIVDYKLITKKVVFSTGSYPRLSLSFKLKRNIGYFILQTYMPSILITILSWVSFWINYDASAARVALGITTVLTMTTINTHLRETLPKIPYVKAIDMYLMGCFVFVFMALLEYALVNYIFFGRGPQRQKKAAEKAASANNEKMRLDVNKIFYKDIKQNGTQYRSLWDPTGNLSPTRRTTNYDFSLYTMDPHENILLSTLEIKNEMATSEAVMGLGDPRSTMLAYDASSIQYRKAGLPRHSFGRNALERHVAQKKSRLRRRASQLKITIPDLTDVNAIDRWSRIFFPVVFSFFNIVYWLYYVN
T1 sequence (P18507 40-475): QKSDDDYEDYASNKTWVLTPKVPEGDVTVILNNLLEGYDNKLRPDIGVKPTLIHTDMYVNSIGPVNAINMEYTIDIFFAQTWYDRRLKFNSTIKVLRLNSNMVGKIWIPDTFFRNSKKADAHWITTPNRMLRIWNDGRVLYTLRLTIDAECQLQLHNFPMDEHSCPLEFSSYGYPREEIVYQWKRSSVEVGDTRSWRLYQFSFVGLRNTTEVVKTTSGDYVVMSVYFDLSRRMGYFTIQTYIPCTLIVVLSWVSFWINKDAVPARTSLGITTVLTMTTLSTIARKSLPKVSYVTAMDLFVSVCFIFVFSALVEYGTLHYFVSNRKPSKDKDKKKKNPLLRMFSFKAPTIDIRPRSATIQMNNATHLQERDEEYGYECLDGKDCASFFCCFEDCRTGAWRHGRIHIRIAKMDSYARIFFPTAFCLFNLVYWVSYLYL
Procedure: Given that ligands binding within the α1/γ2 interface act as PAMs, we selected the most promising 1H-benzo[d]imidazoles (9, 15, 16, 23, and 29) for electrophysiological studies using automated patch clamp recordings (QPatch16X, Sophion). We expected that 1H-benzo[d]imidazoles would potentiate GABA-induced Cl^– currents rather than inducing ion passage alone.
Electrophysiology studies were performed using the QPatch16X automatic patch clamp platform (Sophion Biosciences) and HEK293 cells, stably expressing the α1β2γ2 subunits of the human GABA-A receptor. Prior to the assay recordings, the cells were transferred from the culture flask through a TrypLE Express solution (LifeTechnologies) and resuspended in serum-free media. The cells were placed in the lidless microtube, located onboard the automated electrophysiology instrument. The cells were then automatically relocated to a built-in centrifuge, spun down, and washed in Ringer’s extracellular solution. The cells were transferred to the pipetting wells of a single-use 16-channel planar patch chip plate (QPlate 16X), and gigaseals were formed upon implementation of a combined suction/voltage protocol. Subsequent suction induced whole-cell configuration. The chloride currents passed via the GABA-A receptor were recorded for 7 s after single addition of a tested molecule. Through whole-cell recording, the holding potential was set to −90 mV. The assay was performed at room temperature. The extracellular solution was composed of the following ingredients: consisted of 2 mM […], 145 mM NaCl, 10 mM HEPES, CaCl2, 1 mM MgCl2, 10 mM glucose (pH 7.4, 300 mOsm), and intracellular solution contained 140 mM CsF, 1 mM EGTA, 5 mM CsOH, 10 mM HEPES, and 20 mMNaCl (pH 7.2, 320 mOsm). The screening assays were established in the instrument software by sequential application of 10 μM GABA (reference agonist AG1), 1 μM examined molecule compounds, and compounds co-administered with 10 μM GABA (T2); second addition of 10 μM GABA (AG2); 10 μM bicuculline (reference antagonist) along with 10 μM GABA (ATG). The intermission among the addition of particular molecules was 60 s. In a typical procedure, 5 μL of ligand was added to the cells, followed by 3 s of washout with an extracellular solution (two times […]). For the allosteric modulator/antagonist mode, the cells were preincubated with the tested compound alone for 50 s, followed by the addition of the reference agonist. The data obtained were processed using QPatch Assay Software (v5.0, Sophion Biosciences) and are represented as the mean of at least three independent experiments performed on separate cells. The validation criteria for a single test were current amplitude evoked by adding GABA greater than 500 pA and a change between cells’ response to GABA applications (AG1 and AG2) not greater than 25%. The relative compound efficiency was analyzed as the baseline-corrected ratio of maximal current amplitudes induced by the addition of tested compounds and reference agonist (T1-ATG/AG1-ATG or T2-ATG/AG1-ATG). The obtained raw current recordings were normalized and represented as % of the current amplitude induced by a reference agonist (GABA = 100%) using the QPatch Assay Software (v5.0, Sophion Biosciences).[24]

| SMILES | pKi GABA-A [1] | melting point | % of 10 μM GABA response [2] |
| --- | --- | --- | --- |
| Cc1ccc2c(c1)nc(-c1ccc(F)cc1)n2CC(=O)N1CCCC1 [Compound 10, 2-(2-(4-Fluorophenyl)-5-methyl-1H-benzo[d]imidazole-1-yl)-1-(pyrrolidin-1-yl)ethan-1-one] | no affinity | 208.7 to 210.2 °C | – |
| Cc1ccc2nc(-c3ccc(F)cc3)n(CC(=O)N3CCSCC3)c2c1 [Compound 11, 2-(2-(4-Fluorophenyl)-6-methyl-1H-benzo[d]imidazole-1-yl)-1-thiomorpholinoethan-1-one] | 5.1 | 205.3 to 207.1 °C | – |
| Cc1ccc2c(c1)nc(-c1ccc(F)cc1)n2CC(=O)N1CCSCC1 [Compound 12, 2-(2-(4-Fluorophenyl)-5-methyl-1H-benzo[d]imidazole-1-yl)-1-thiomorpholinoethan-1-one] | no affinity | 199 to 200.9 °C | – |
| Cc1ccc2nc(-c3ccc(F)cc3)n(CC(=O)Nc3ccccc3)c2c1 [Compound 13, 2-(2-(4-Fluorophenyl)-6-methyl-1H-benzo[d]imidazole-1-yl)-N-phenylacetamide] | 5.53 | 202.5 to 205 °C | – |
| Cc1ccc2c(c1)nc(-c1ccc(F)cc1)n2CC(=O)Nc1ccccc1 [Compound 14, 2-(2-(4-Fluorophenyl)-5-methyl-1H-benzo[d]imidazole-1-yl)-N-phenylacetamide] | no affinity | 207.3 to 209.2 °C | – |
| CN(C)C(=O)Cn1c(-c2ccc(F)cc2)nc2ccccc21 [Compound 15, 2-(2-(4-Fluorophenyl)-1H-benzo[d]imidazole-1-yl)-N,N-dimethylacetamide] | 5.39 | 182.3 to 183.1 °C | 105 ± 2,5% |
| O=C(Cn1c(-c2ccc(F)cc2)nc2ccccc21)N1CCCC1 [Compound 16, 2-(2-(4-Fluorophenyl)-1H-benzo[d]imidazole-1-yl)-1-(pyrrolidin-1-yl)ethan-1-one] | 5.53 | 212.9 to 214 °C | 124 ± 5,2% |
| O=C(Cn1c(-c2ccc(F)cc2)nc2ccccc21)N1CCNCC1 [Compound 17, 2-(2-(4-Fluorophenyl)-1H-benzo[d]imidazole-1-yl)-1-(piperazin-1-yl)ethan-1-one] | loss of activity | 232.8 to 234.1 °C | – |
| CN1CCN(C(=O)Cn2c(-c3ccc(F)cc3)nc3ccccc32)CC1 [Compound 18, 2-(2-(4-Fluorophenyl)-1H-benzo[d]imidazole-1-yl)-1-(4-methylpiperazin-1-yl)ethan-1-one] | – | 172.3 to 173.1 °C | – |
| CC1CN(C(=O)Cn2c(-c3ccc(F)cc3)nc3ccccc32)CC(C)N1 (stereo not drawn) [Compound 19, 1-(3,5-Dimethylpiperazin-1-yl)-2-(2-(4-fluorophenyl)-1H-benzo[d]imidazole-1-yl)ethan-1-one] | – | 109.6 to 112.4 °C | – |
| O=C(Cn1c(-c2ccc(F)cc2)nc2ccccc21)N1CCOCC1 [Compound 20, 2-(2-(4-Fluorophenyl)-1H-benzo[d]imidazole-1-yl)-1-morpholinoethan-1-one] | loss of activity | – | – |
| O=C(Cn1c(-c2ccc(F)cc2)nc2ccccc21)N1CCSCC1 [Compound 21, 2-(2-(4-Fluorophenyl)-1H-benzo[d]imidazole-1-yl)-1-thiomorpholinoethan-1-one] | – | 205.3 to 205.8 °C | – |
| O=C(Cn1c(-c2ccc(F)cc2)nc2ccccc21)Nc1ccccc1 [Compound 22, 2-(2-(4-Fluorophenyl)-1H-benzo[d]imidazole-1-yl)-N-phenylacetamide] | – | 236.7 to 239 °C | – |
| COc1ccccc1NC(=O)Cn1c(-c2ccc(F)cc2)nc2ccccc21 [Compound 24, 2-(2-(4-Fluorophenyl)-1H-benzo[d]imidazole-1-yl)-N-(2-methoxyphenyl)acetamide] | loss of affinity | 206.9 to 207.2 °C | – |
| COc1cccc(NC(=O)Cn2c(-c3ccc(F)cc3)nc3ccccc32)c1 [Compound 25, 2-(2-(4-Fluorophenyl)-1H-benzo[d]imidazole-1-yl)-N-(3-methoxyphenyl)acetamide] | 5.02 | 149.1 to 149.9 °C | – |
| COc1ccc(NC(=O)Cn2c(-c3ccc(F)cc3)nc3ccccc32)cc1 [Compound 26, 2-(2-(4-Fluorophenyl)-1H-benzo[d]imidazole-1-yl)-N-(4-methoxyphenyl)acetamide] | loss of affinity | 255.1 to 255.7 °C | – |
| O=C(Cn1c(-c2ccc(F)cc2)nc2ccccc21)Nc1ccccc1F [Compound 27, N-(2-Fluorophenyl)-2-(2-(4-fluorophenyl)-1H-benzo[d]imidazole-1-yl)acetamide] | – | 212.1 to 212.8 °C | – |
| O=C(Cn1c(-c2ccc(F)cc2)nc2ccccc21)Nc1cccc(F)c1 [Compound 28, N-(3-Fluorophenyl)-2-(2-(4-fluorophenyl)-1H-benzo[d]imidazole-1-yl)acetamide] | – | 182.3 to 182.7 °C | – |
| O=C(Cn1c(-c2ccc(F)cc2)nc2ccccc21)Nc1ccc(F)cc1 [Compound 29, N-(4-Fluorophenyl)-2-(2-(4-fluorophenyl)-1H-benzo[d]imidazole-1-yl)acetamide] | 5.74 | 248 to 248.2 °C | 112 ± 2,8% |
| Cc1ccc(-c2nc3ccc(C)cn3c2CC(=O)N(C)C)cc1 [zolpidem, reference compound] | 7.39 | – | 212 ± 8,5% |

Source: PMC10020958, “2-(4-Fluorophenyl)-1H-benzo[d]imidazole as a Promising Template for the Development of Metabolically Robust, α1β2γ2GABA-A Receptor-Positive Allosteric Modulators” (ACS Chemical Neuroscience, 2023)
